Experimental data: patent US20260355199A1, “COMPOSITIONS AND METHODS FOR TREATING OR PREVENTING NONALCOHOLIC STEATOHEPATITIS (NASH), ANOREXIA, DEPRESSION, ENDOMETRIOSIS, AND OTHER DISEASES OR DISORDERS” (priority 2022, published 2026)
Entries after “also recorded” stand apart in the source; their conditions may differ.

Key:
[1] = test system: murine model of endometriosis; test: Surgically induced murine model of endometriosis; format: in vivo, mouse
Procedure: Female mice were randomly divided into three groups (sham, endometriosis treated with vehicle, and endometriosis treated with Bobcat) and subjected to surgery (week 1) to induce endometriosis or sham (FIG. 22A). The first once-a-week intraperitoneal (i.p.) injection of Bobcat339 (or vehicle) at a dose of 2.5 mg/kg was performed on week 3, followed by euthanasia and blood and tissue collection at week 9.
Given that Bobcat339 degrades TET3 inducing apoptosis (FIG. 26) and that myeloid-specific Tet3 ablation attenuates endometriosis (FIG. 28A through FIG. 28C), studies were performed to test whether Bobcat339 would elicit therapeutic effects on endometriosis. Thus, female mice were randomly divided into three groups (sham, endometriosis treated with vehicle, and endometriosis treated with Bobcat339) and subjected to surgery (week 0) to induce endometriosis or sham (FIG. 28D). The first once-a-week intraperitoneal (i.p.) injection of Bobcat339 (or vehicle) at a dose of 2.5 mg/kg body weight was performed on week 2, followed by euthanasia and blood and tissue collection on week 8. The dose of 2.5 mg/kg was chosen based on the previous studies showing no discernible liver toxicity in mice (Lv et al., 2023, Proc Natl Acad Sci USA, In press).
As Bobcat339 destabilized TET3, thus promoting macrophage apoptosis, additional studies tested whether Bobcat339 inhibits endometriosis (FIG. 25). Female mice were randomly divided into three groups (sham, endometriosis treated with vehicle, and endometriosis treated with Bobcat339) and subjected to surgery (week 0) to induce endometriosis or sham (FIG. 26). The first once-a-week intraperitoneal (i.p.) injection of Bobcat339 (or vehicle) at a dose of 3 mg/kg body weight was performed on week 2, followed by euthanasia and sample collection on week 8.
Bobcat339 powder was freshly dissolved in DMSO at a concentration of 50 mg/mL and filtered through a 0.22 micron filter. It was further diluted with 1×PBS to a final concentration of 0.5 mg/mL before injections. Mice were injected intraperitoneally with Bobcat339 at 2.5 mg/kg body weight.
Briefly, uterus horns were removed from wild-type female donor mice, opened longitudinally and cut into fragments of 3 mm. Two uterine segments were sutured to each right and left parietal peritoneum of recipient mice (6-7 weeks old) with absorbable suture. Sham surgeries were performed for sham group, using the same surgical procedure without the introduction of extraneous uterine tissue. The experimental model was allowed to develop for more than 4 weeks. Development of the model was confirmed by opening the abdominal cavity and measuring the size of endometriotic lesions both macroscopically and histologically.

THP-1 cells = test: TUNEL assay in THP-1 cells; format: cell-based, human; settings: THP-1, 10 μM, 48 h
Procedure: For TET3 expression restoration experiments, cells seeded in 24-well plates were infected with Ad-GFP or Ad-TET3 at 4000 gc/cell. Following 16 h of infection, vehicle or Bobcat339 were added at a final concentration of 10 μM. Protein and RNA were isolated 48 hours later and analyzed.
These were performed using the In Situ Cell Death Detection Kit (Sigma Aldrich, 12156792910). Briefly, cells were fixed with 4% paraformaldehyde in PBS for 1 h at RT and rinsed with PBS, followed by permeabilization with 0.1% Triton X-100 in 0.1% sodium citrate for 2 min on ice. TUNEL reaction mixture was added and incubation was carried out at 37 °C for 60 min. DAPI was added to counter-stain the cells for 1 min. The slides were coverslipped and scoped using a Keyence BZ-X700 fluorescence microscope.

TET3 = TET3 protein in human MDMs; format: cell-based; settings: 24 h
Procedure: For siRNA transfection in a 24-well plate scale of MDMs, NT siRNA or TET3 siRNA (4392420/s47239, Ambion) was mixed with 25 μL of OPTI-MEM by gentle pipetting. In parallel, 1.5 μL of Lipofectamine RNAiMAX was mixed with 25 μL of OPTI-MEM by gentle pipetting. Following 5 min of incubation at RT, the resulting 50 μl of transfection solution was added to each well of cells containing 450 μL of growth media.
Bobcat339 Treatment of Cultured Cells Bobcat339 powder (Sigma-Aldrich, SML2611) was freshly dissolved in DMSO at a concentration of 5 mM and filtered through a 0.22 micron. […]
For cultured MDMs, cells were primed with CM-Endo or TGF-β1 (PeproTech, 100-21) for 36-48 h (to increase TET3 expression) before Bobcat339 treatment.
Cells were homogenized in situ using a pipette tip in 2×SDS-sample buffer with 10% β-mercaptoethanol at RT followed by heating at 100 °C for 5 min with occasional vortexing. The samples were loaded onto a 4-15% gradient SDS gel (Bio-rad, 456-8086) (10 μL/well) and transferred to nitrocellulose membranes, followed by Western blot analysis. […]

Nc1nc(=O)n(-c2cccc(-c3ccccc3)c2)cc1Cl [Bobcat339, 4-Amino-1-[1,1′-biphenyl]-3-yl-5-chloro-2(1H)-pyrimidinone]
TET3-expressing (CD163 double positive) macrophages in lesions ([1]; 2.5 mg/kg i.p. once a week): depletion of TET3/CD163-double positive cells; also recorded: depletion of TET3-expressing macrophages | body weight ([1]; 2.5 mg/kg i.p. once a week): no statistically significant differences were observed in body weight; also recorded: nor was there a significant difference in body weight | endometriosis lesion volume ([1]; 2.5 mg/kg i.p. once a week): significantly reduced the lesion volume; also recorded: a significant decrease in lesion volume; also recorded: a significantly decrease in lesion volume | food intake / appetite in endometriosis mice ([1]; 2.5 mg/kg i.p. once a week): the decrease was not observed; also recorded: improved appetite | IL-1b and IL-6 expression in CD163+ macrophage-enriched areas ([1]; 3 mg/kg i.p. once a week): a dramatic reduction in the expression of IL-1b and IL-6 | body weight ([1]; 3 mg/kg i.p. once a week): nor was there a significant difference in body weight | endometriosis lesion volume ([1]; 3 mg/kg i.p. once a week): significantly reduced the lesion volume | number of TET3-overexpressing CD163+ macrophages ([1]; 3 mg/kg i.p. once a week): a marked decrease in the number of TET3-overexpressing CD163^+ macrophages | apoptosis (TUNEL) (THP-1 cells): a significant increase in apoptotic cell death | TET3 protein level (TET3; 10 μM): a decrease in TET3 expression; also recorded: decreased the level of TET3 protein | steady-state level of TET3 protein (TET3; 10 mM (so in the source)): a decrease in the steady-state level of TET3 protein
